Values quoted from earlier work, collected in paper PMC10322880 (Communications Biology, 2023).

System: SARS-CoV-2
Details: phase 2/3 clinical trial

## Cn1cnc(Cn2c(=O)[nH]/c(=N\c3cc4cn(C)nc4cc3Cl)n(Cc3cc(F)c(F)cc3F)c2=O)n1 [ensitrelvir]
  SARS-CoV-2 clearance: rapid SARS-CoV-2 clearance
  tolerability: well tolerated
